Measurements published in US7351737B2, “4-[(8-substituted)-6-chromanoyl]-and 4-[8-substituted)-chroman-6-YL-ethynyl]-benzoic and phenylacetic acids, their esters and salts having cytochrome P450RAI inhibitory activity” (Allergan, Inc., priority 2002, dated 2008).

Key:
skin of fuzzy rats = experiment: Topical skin irritation test; assay type: in vivo, female fuzzy rats (Hsd:FUZZY-fz); settings: topical in acetone, daily Day 1-14, group average of grade 0-4
Excerpt: The topical retinoid all-trans-retinoic acid (ATRA) and oral retinoids such as 13-cis RA and etretinate are known to induce substantial skin irritation in humans. This irritation is a direct result of activation of the RAR nuclear receptors. Analysis of retinoid topical irritation is also a highly reproducable method of determining in vivo retinoid potency. The female fuzzy rats provide a convenient animal model of topical irritation, since retinoid-induced skin flaking and abrasion can be readily scored by eye, while their larger size than those of mice also allows multiple sampling of serum for clinical analyses. Topical application of P450RAI inhibitors should cause an increase in the endogenous levels of ATRA that would result in ATRA-induced irritation in skin of hairless mice. In these tests female fuzzy rats ((Hsd:FUZZY-fz), 6-7 weeks old, were obtained from Harlan Sprague-Dawley (Indianapolis, Ind.). The animals were about 8-9 weeks old at the start of the experiments. Food (Purina Rodent Chow 5001) and water purified by reverse osmosis were provided ad libitum. The rats were housed individually throughout the dosing period. Test chemicals were dissolved in acetone (vehicle) for application to the backs of the rats. Two days prior to actual administration of the test compounds, rats were handled daily and dosed with vehicle at a volume of 0.5 ml/kg. Starting on Day 1 thought Day 14 (dosing period), animals were dosed with the vehicle or compound(s) according to their group assignment. The rats in the tests were observed daily and the dorsal skin was graded for the degree of erythema/eschar and overall appearance. The scoring was in accordance with Table 2, below. [table] Daily group average was calculated by dividing the sum of the individual grade by the number of animals in each treatment group. The attached data in Table 3 indicates the retinoid-mimetic effects of some P450RAI inhibitors on the skin of fuzzy rats in the above described tests and in accordance with the above-indicated scoring.

RARα = target: T1, RARα (Homo sapiens, UniProt P10276); experiment: chimeric receptor transactivation assay, RARα; assay type: cell-based; settings: for RAR α (EFFICACY): value in brackets
T1 sequence (P10276 183-417 limits assumed): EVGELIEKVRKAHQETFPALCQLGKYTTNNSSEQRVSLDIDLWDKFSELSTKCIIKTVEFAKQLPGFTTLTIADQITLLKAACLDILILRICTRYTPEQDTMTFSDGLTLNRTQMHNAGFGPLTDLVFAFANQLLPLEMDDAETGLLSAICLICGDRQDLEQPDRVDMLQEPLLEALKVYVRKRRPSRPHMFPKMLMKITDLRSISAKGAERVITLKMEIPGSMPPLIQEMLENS
Excerpt: (§1) Assays described below measure the ability of a compound to bind to, and/or activate various retinoid receptor subtypes. When in these assays a compound binds to a given receptor subtype and activates the transcription of a reporter gene through that subtype, then the compound is considered an agonist of that receptor subtype. […] In the below described assays the ability of the compounds to bind to RARα, RARβ, RARγ, RXRα, RXRβ and RXRγ receptors, and the ability or inability of the compounds to activate transcription of a reporter gene through these receptor subtypes can be tested.
(§2) As far as specific assays are concerned, a chimeric receptor transactivation assay which tests for agonist-like activity in the RARα, RARβ, and RARγ, receptor subtypes, and which is based on work published by Feigner P. L. and Holm M. (1989) Focus, 112 is described in detail in U.S. Pat. No. 5,455,265. The specification of U.S. Pat. No. 5,455,265 is hereby expressly incorporated by reference. The numeric results obtained with several preferred compounds of this invention in this assay are shown below in Table 1.
A holoreceptor transactivation assay and a ligand binding assay which measure the antagonist/agonist like activity of the compounds of the invention, or their ability to bind to the several retinoid receptor subtypes, respectively, are described in published PCT Application No. WO WO93/11755 (particularly on pages 30-33 and 37-41) published on Jun. 24, 1993, the specification of which is also incorporated herein by reference. A detailed experimental procedure for holoreceptor transactivations has been described by Heyman et al. Cell 68, 397-406, (1992); Allegretto et al. J. Biol. Chem. 268, 26625-26633, and Mangelsdorf et al. The Retinoids: Biology, Chemistry and Medicine, pp 319-349, Raven Press Ltd., New York, which are expressly incorporated herein by reference. The results obtained in this assay are expressed in EC50 numbers, as they are also in the chimeric receptor transactivation assay. The results of ligand binding assay are expressed in Kd numbers. (See Cheng et al. Biochemical Pharmacology Vol. 22 pp 3099-3108, expressly incorporated herein by reference.)

RARβ = target: T2, RARβ (Homo sapiens, UniProt P10826); experiment: chimeric receptor transactivation assay, RARβ; assay type: cell-based; settings: first item of cell EC50/(EFFICACY)/Kd, read-out: RAR β EC50
T2 sequence (P10826 183-417 limits assumed): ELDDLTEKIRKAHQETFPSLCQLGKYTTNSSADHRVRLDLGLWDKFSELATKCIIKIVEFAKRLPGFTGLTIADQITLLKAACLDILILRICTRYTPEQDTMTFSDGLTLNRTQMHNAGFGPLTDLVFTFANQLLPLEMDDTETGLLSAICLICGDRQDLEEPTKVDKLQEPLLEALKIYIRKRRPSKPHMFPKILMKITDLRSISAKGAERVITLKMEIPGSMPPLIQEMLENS
Excerpt: as §1
as §2, with “1. […]” for “1.”

| SMILES | Irritation Score on day 14 (skin of fuzzy rats; 1% compound + 0.1% retinol) | Irritation Score on day 14 (skin of fuzzy rats; 1% compound alone) | RAR α (EFFICACY) (RARα) | further results |
| --- | --- | --- | --- | --- |
| C#Cc1cc(C(=O)Oc2ccc(CC(=O)OCC)cc2)cc2c1OC(C)(C)CC2(C)C [Compound 2, 8-Ethynyl-2,2,4,4-tetramethyl-chroman-6-carboxylic acid 4-ethoxycarbonylmethyl-phenyl ester] | 1.6 | 0 |  |  |
| C#Cc1cc(C(=O)Oc2ccc(CC(=O)OCOC(C)=O)c(F)c2)cc2c1OC(C)(C)CC2(C)C [Compound 5, 8-Ethynyl-2,2,4,4-tetramethyl-chroman-6-carboxylic acid 4-acetoxymethoxycarbonylmethyl-3-fluoro-phenyl ester] |  |  | 10 | Irritation Score on day 14 (skin of fuzzy rats; 0.1% compound + 0.1% retinol): 2.2; Irritation Score on day 14 (skin of fuzzy rats; 0.1% compound alone): 0.4 |
| C#Cc1cc(C(=O)Oc2ccc(CC(=O)OCOC(C)=O)cc2)cc2c1OC(C)(C)CC2(C)C [Compound 3, 8-Ethynyl-2,2,4,4-tetramethyl-chroman-6-carboxylic acid 4-acetoxymethoxycarbonylmethyl-phenyl ester] | 2.4 | 0 |  |  |
| C#Cc1cc(C(=O)Oc2ccc(CC(=O)O)c(F)c2)cc2c1OC(C)(C)CC2(C)C [Compound 4, 8-Ethynyl-2,2,4,4-tetramethyl-chroman-6-carboxylic acid-4-carboxymethyl-3-fluoro-phenyl ester] | 3.4 | 1.4 | 20 | EC50 (RARβ): 263 nM |
| C#Cc1cc(C#Cc2ccc(CC(=O)O)cc2)cc2c1OC(C)(C)CC2(C)C [Compound 40, [4-(8-Ethynyl-2,2,4,4-tetramethyl-chroman-6-ylethynyl)-phenyl]-acetic acid] |  |  | 15 | EC50 (RARα; first item of cell EC50/(EFFICACY)/Kd, read-out: RAR α EC50): 129 nM; EC50 (RARβ): 101 nM |
| C#Cc1cc(C(=O)Oc2ccc(CC(=O)O)cc2)cc2c1OC(C)(C)CC2(C)C [Compound 1, 8-Ethynyl-2,2,4,4-tetramethyl-chroman-6-carboxylic acid 4-carboxymethyl-phenyl ester] |  |  |  | Irritation Score on day 14 (skin of fuzzy rats; 3% compound + 0.1% retinol): 1; Irritation Score on day 14 (skin of fuzzy rats; 3% compound alone): 2.6 |
| C#Cc1cc(C#Cc2ccc(CC(=O)O)c(F)c2)cc2c1OC(C)(C)CC2(C)C [Compound 41, [4-(8-Ethynyl-2,2,4,4-tetramethyl-chroman-6-ylethynyl)-2-fluoro-phenyl]-acetic acid] |  |  | 10 |  |
